Values quoted from earlier work, collected in patent publication US9271959B2, “Bicyclic tetrahydropyrrole compounds” (Laboratorios del Dr. Esteve, S.A., priority 2006, dated 2016).

How the values were obtained:
sigma (σ-2) site = sigma (σ-2) site (Homo sapiens, UniProt Q5BJF2)
sigma 1 (σ-1) site = sigma 1 (σ-1) site (Homo sapiens, UniProt Q99720)
sigma 1 (σ-1) site, sequence (Q99720 whole entry): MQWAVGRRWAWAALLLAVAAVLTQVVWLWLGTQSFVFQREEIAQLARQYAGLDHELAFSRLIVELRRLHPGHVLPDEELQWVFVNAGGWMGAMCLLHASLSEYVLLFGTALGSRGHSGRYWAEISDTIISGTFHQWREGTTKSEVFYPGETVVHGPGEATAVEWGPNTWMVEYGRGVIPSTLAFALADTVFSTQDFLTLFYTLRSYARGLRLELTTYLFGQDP

sigma (σ-2) site, sequence (Q5BJF2 whole entry): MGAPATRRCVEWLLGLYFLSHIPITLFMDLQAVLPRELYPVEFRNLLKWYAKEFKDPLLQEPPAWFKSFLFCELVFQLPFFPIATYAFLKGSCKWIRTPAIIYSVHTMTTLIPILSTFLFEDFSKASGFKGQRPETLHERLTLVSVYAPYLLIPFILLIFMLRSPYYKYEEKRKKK

In the case of SKF 10047, the “affinity for the sigma (σ-2) site” value (sigma (σ-2) site) is given as “micromolar affinity” and the “affinity for the sigma 1 (σ-1) site” value (sigma 1 (σ-1) site) is given as “nanomolar affinity”.
